Reference: US4139628A, “Amino-spiro[oxa(or thia)cycloalkane-penam]-carboxylic acid derivatives” (U C B, Societe Anonyme, priority 1977, dated 1979)

Tests used:
beta-lactamase P 99 = molecular target: T1, beta-lactamase P 99 (Enterobacter cloacae, UniProt P05364); experiment: hydrolysis kinetics in the presence of beta-lactamase (residual activity); assay type: biochemical, Gram-negative bacteria; conditions: as compared with ampicillin
T1 construct: source not detailed

[1] = system: Escherichia coli K 12-44 S; assay type: cell-based; conditions: E.COLI K 12-44S; relative to ampicillin = 1
Method: It is very sensitive to penicillins due to hyperpermeability.
(§1) The products to be tested are introduced in increasing concentrations into a gelose culture medium in Petri dishes. A multiple inoculator is used to deposit simultaneously drops (10 microliters) of inoculum (suspension of about 10^5 bacteria per ml) onto the surface of the medium. After incubation at 37° C. for 24 hours, the growth of the bacteria is observed. By definition, the MIC is expressed as the minimum concentration of the tested compounds which inhibits the multiplication of the bacteria. In the results which follow, however, the MIC is given as being equal to 1 for the reference compounds and the activity figures given for the tested compounds of general formula (I) are, therefore, relative values. This presentation of the results is more correct and the most reproducible, because, for one and the same bacterial strain, different MIC values can be observed if they are measured at different times. This is bound up with the "seasonal" variations in the strains and their nutrient medium.

beta-lactamase TEM = experiment: hydrolysis kinetics in the presence of beta-lactamase (residual activity); assay type: biochemical, Gram-negative bacteria; conditions: after incubation for 6 minutes
[2] = system: Escherichia coli B AMPI-R; experiment: minimum inhibitory concentration (MIC), gelose culture medium in Petri dishes; assay type: cell-based; conditions: relative MIC (ampicillin = 1) on E. COLI B versus its beta-lactamase hyperproducer mutant
Method: This is a mutant of the preceding strain, which we have produced.
as §1

T1 sequence (P05364 21-381): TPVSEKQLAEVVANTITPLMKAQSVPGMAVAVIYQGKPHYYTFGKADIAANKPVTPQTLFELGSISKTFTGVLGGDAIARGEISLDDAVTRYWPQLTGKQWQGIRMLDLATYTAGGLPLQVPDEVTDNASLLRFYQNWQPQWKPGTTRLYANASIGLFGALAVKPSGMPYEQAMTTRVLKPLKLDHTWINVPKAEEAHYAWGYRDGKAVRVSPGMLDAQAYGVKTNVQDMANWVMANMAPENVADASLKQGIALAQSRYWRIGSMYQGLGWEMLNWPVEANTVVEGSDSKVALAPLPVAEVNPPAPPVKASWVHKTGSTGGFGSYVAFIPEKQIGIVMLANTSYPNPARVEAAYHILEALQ

Row | Compound | resistance to beta-lactamase, in words (beta-lactamase P 99) | MIC, relative value [1] | Remaining activity as percentage (beta-lactamase TEM) | difference between the activity on E. COLI B and on E. COLI B Ampi-R (factor) [2]
1 | NC(C(=O)NC1C(=O)N2C1SC1(CCSCC1)C2C(=O)O)c1ccccc1 (stereo not drawn) [Compound F, 6-(2"-amino-2"-phenylacetamido)-2',3',5',6'-tetrahydro-spiro[penam-2,4'-[4H]thiopyran]-3-carboxylic acid] | increased resistance | 15 |  | 
2 | NC(C(=O)NC1C(=O)N2C1SC1(CC[S+]([O-])CC1)C2C(=O)O)c1ccccc1 (stereo not drawn) [Compound J, 6-(2"-amino-2"-phenylacetamido)-2',3',5',6'-tetrahydro-spiro[penam-2,4'-[4H]thiopyran]-3-carboxylic acid 1'-oxide] | No change in behavior |  |  | 
3 | N[C@@H](C(=O)NC1C(=O)N2C1SC1(CCOCC1)C2C(=O)O)c1ccccc1 (single isomer, unassigned) [Compound B, 6-(2"-amino-2"-phenylacetamido)-2',3',5',6'-tetrahydro-spiro[penam-2,4'-[4H]pyran]-3-carboxylic acid] |  | 1.9 | 87% | 3.5
